This note sets out measurements from US20140094462A1, “SONIC HEDGEHOG MODULATORS” (priority 2009, published 2014).

As usually defined, the Kd is the constant that tells how readily two partners part at equilibrium.

For data set [1] the following is noted: rcm bond, toluene.
The conditions of data set [2]: rcm bond, 12-membered ring.
The subject of another data set is Gli1. The data set can be described thus: Primary keratinocyte cell culture, reduction in Gli mRNA. The class given is cell-based. Particulars: primary human keratinocytes. The protocol: To study the potency of the compounds of the invention in cells, select compounds of the invention were conducted with keratinocytes and the reduction in Gli mRNA was measured. Culturing of primary human keratinocytes was previously described (Nguyen, B. C., et al., Genes & Dev. 20:1028-1042 (2006)). The full thickness skin model, EpiDermFT System (MatTek, Ashland), consisted of normal, human-derived epidermal keratinocytes and normal, human-derived dermal fibroblasts which have been cultured to form a multilayered, highly differentiated model of the human dermis and epidermis. […] Gene expression is compared by quantifying mRNA levels by real time RT-PCR. For this, total RNA preparations […] are used in a reverse transcriptase reaction with a mix of oligonucleotide dT and random hexamer primers, followed by real time PCR with gene-specific primers (Gli1: Qiagen Quantitect PrimerAssay QT00060501; Gli2: Qiagen Quantitect PrimerAssay QT00018648), using an […] real time detection system (Bio-Rad) according to the manufacturer's recommendation, with SYBR Green (Bio-Rad) for detection.

In the next data set the test system is C3H10T1/2. The data set can be described thus: Induction of osteogenic differentiation (modulation of osteoblast differentiation). The note with it: Mus musculus, C3H 10T1/2, read-out: IC50 (nM) C3H10T1/2.
In the next data set the target is T1, ShhN protein (Homo sapiens, UniProt Q15465).
T1 construct: auto-cleavage of full length Shh into an active 20 kD N-terminal fragment (ShhN); purchased R&D Systems
T1 sequence (Q15465 24-197 limits assumed, species assumed): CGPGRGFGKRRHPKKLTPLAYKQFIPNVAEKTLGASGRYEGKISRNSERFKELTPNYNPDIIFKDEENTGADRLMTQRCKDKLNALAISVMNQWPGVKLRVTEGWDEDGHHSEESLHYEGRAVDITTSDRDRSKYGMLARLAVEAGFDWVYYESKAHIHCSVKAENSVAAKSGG
Description: Surface Plasmon Resonance (SPR) protein binding assay on immobilized ShhN. Particulars: SPR, Biacore T100, ShhN immobilized on CM4 chip, 25° C., compound 0.78 μM-25 μM; read-out: KD. The method, boiled down:
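Binding to immobilized ShhN measured on a Biacore T100 at 25°C. Signals referenced against underivatized control surfaces, with zero-concentration blank cycles included. Solvent correction applied.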
(In general: SPR reads the build-up and loss of mass on a sensor chip optically.)

Read-outs that look alike come from different tables or passages of the source.

Description for C3H10T1/2: Using assays previously described in Dwyer et al., J. Biol. Chem. 282, (2007), 8959-68 and Nakamura et al., Biochm. […] Res. Comm., 237 (1997) 465-9, select compounds of the invention were screened for their ability to modulate osteoblast differentiation.

In turn, `CC(C)(C)OC(=O)C[C@@H]1C/C=C/CCC(=O)O[C@H](c2ccccc2)CNC1=O` gave a ring closure, yield of all isomers in data set [1] (from C=CCCC(=O)O[C@@H](CNC(=O)[C@@H](CC=C)CC(=O)OC(C)(C)C)c1ccccc1, Grubbs 2nd Generation catalyst, 10.0 mM, 65.0 °C, 7.0 h) of 73%. In data set [2] (from C=CCCC(=O)O[C@@H](CNC(=O)[C@@H](CC=C)CC(=O)OC(C)(C)C)c1ccccc1, Grubbs II (10 mol%), toluene, 10.0 mM, 65.0 °C, 7.0 h), the ring closure, isolated yield amounted to 73%.
Turning to `CC(C)(C)OC(=O)N[C@@H]1C/C=C/CCC(=O)N[C@H](c2ccc(F)cc2)COC1=O`, the ring closure, isolated yield in data set [2] (from C=CCCC(=O)N[C@@H](COC(=O)[C@@H](CC=C)NC(=O)OC(C)(C)C)c1ccc(F)cc1, Grubbs II (10 mol%), DCM, 9.9 mM) is 85%.
The compound `CCO[Si](OCC)(OCC)C1=CCC(C)(C)C(=O)OC[C@@H](c2ccccc2)NC(=O)CC1` had a ring closure, yield of all isomers in data set [1] (from C=CCC(C)(C)C(=O)OC[C@H](NC(=O)CCC(=C)[Si](OCC)(OCC)OCC)c1ccccc1) of 6%. This compound also showed a ring closure, isolated yield in data set [2] (from C=CCC(C)(C)C(=O)OC[C@H](NC(=O)CCC(=C)[Si](OCC)(OCC)OCC)c1ccccc1, general RCM procedure (catalyst not printed here), toluene) of 6%.
Compound `C[C@@H]1C/C=C/CCC(=O)N[C@H](c2ccccc2)CC(=O)O1` registered a ring closure, isolated yield in data set [2] (from C=CCCC(=O)N[C@H](CC(=O)O[C@@H](C)CC=C)c1ccccc1, Grubbs II (10 mol%), toluene, 10.0 mM) of 79%.
In data set [2] (from C=CCCNC(=O)[C@@H](COC(=O)[C@H](C)CC=C)c1ccccc1, Grubbs II (10 mol%), toluene, 10.0 mM, 2 steps), `C[C@@H]1C/C=C/CCNC(=O)[C@H](c2ccccc2)COC1=O` came in with a ring closure, isolated yield of 63%.
The compound `C[C@H]1C/C=C/CCCN[C@H](c2ccccc2)COC1=O` showed a ring closure, yield of all isomers in data set [1] (from C=CCCCN[C@@H](COC(=O)[C@@H](C)CC=C)c1ccccc1, 3 steps) of 41%. The ring closure, isolated yield in data set [2] (from C=CCCCN[C@@H](COC(=O)C(C)CC=C)c1ccccc1, general RCM procedure (catalyst not printed here), toluene, 3 steps) was found to be 41%.
Take `C[C@@H]1C/C=C/CCC(=O)N[C@H](c2ccccc2)COC1=O` [Example C, (3R,11R,E)-11-methyl-3-phenyl-1-oxa-4-azacyclododec-8-ene-5,12-dione]: the IC50 with Gli1 was below 100 nM; with C3H10T1/2 it was 100 to 1000 nM. In addition, the Kd at ShhN protein is below 100 nM. The ring closure, yield of all isomers in data set [1] (from C=CCCC(=O)N[C@@H](COC(=O)[C@H](C)CC=C)c1ccccc1, Grubbs II, 20.0 mM, 25.0 °C, 12.0 h) was determined as 37%.
For `O=C1CC/C=C/C[C@@H](CC(=O)N2CCCCC2)C(=O)NC[C@@H](c2ccccc2)O1` [Example CQ, (2R,6S,E)-6-(2-oxo-2-(piperidin-1-yl)ethyl)-2-phenyl-1-oxa-4-azacyclododec-8-ene-5,12-dione], the IC50 in the data set on Gli1 and in the data set with C3H10T1/2 was below 100 nM each time. At ShhN protein, the dissociation constant Kd is 100 to 1000 nM.
Regarding `O=C(C[C@@H]1C/C=C/CCC(=O)O[C@H](c2ccccc2)CNC1=O)N[C@@H]1CCCc2ccccc21` [Example CR, 2-((2R,6S,E)-5,12-dioxo-2-phenyl-1-oxa-4-azacyclododec-8-en-6-yl)-N—((R)-1,2,3,4-tetrahydronaphthalen-1-yl)acetamide], the IC50 in the data set on Gli1 and in the data set with C3H10T1/2 was below 100 nM throughout. In addition, the Kd on ShhN protein is below 100 nM.
As for `O=C(C[C@@H]1C/C=C/CCC(=O)O[C@H](c2ccccc2)CNC1=O)NCCCC(F)(F)F` [Example CT, 2-((2R,6S,E)-5,12-dioxo-2-phenyl-1-oxa-4-azacyclododec-8-en-6-yl)-N-(4,4,4-trifluorobutyl)acetamide], the IC50 in the data set with Gli1 and in the data set with C3H10T1/2 was below 100 nM in each case. Also, on ShhN protein, the Kd was below 100 nM.
Turning to `N[C@@H]1C/C=C/C[C@@H](CC(=O)NCc2ccc(Cl)cc2)C(=O)NC[C@@H](c2ccccc2)OC1=O` [Example CV, 2-((2R,6S,11R,E)-11-amino-5,12-dioxo-2-phenyl-1-oxa-4-azacyclododec-8-en-6-yl)-N-(4-chlorobenzyl)acetamide], the IC50 was below 100 nM in the data set with Gli1 and 100 to 1000 nM in the data set on C3H10T1/2. Besides, at ShhN protein, the Kd was below 100 nM.
Consider `C[C@H]1[C@@H](c2ccccc2)OC(=O)CC/C=C/C[C@@H](CC(=O)NCc2ccc(Cl)cc2)C(=O)N1C` [Example CZ, N-(4-chlorobenzyl)-2-((2R,3S,6S,E)-3,4-dimethyl-5,12-dioxo-2-phenyl-1-oxa-4-azacyclododec-8-en-6-yl)acetamide], for which the IC50 in the data set on Gli1 and in the data set on C3H10T1/2 was 100 to 1000 nM throughout. In addition, the Kd at ShhN protein was below 100 nM.
`O=C(C[C@@H]1C/C=C/CCC(=O)N[C@@H](c2ccccc2)COC1=O)NCc1ccc(Cl)cc1` [Example DA, N-(4-chlorobenzyl)-2-((3S,11S,E)-5,12-dioxo-3-phenyl-1-oxa-4-azacyclododec-8-en-11-yl)acetamide]: the IC50 was below 100 nM in the data set on Gli1 and 100 to 1000 nM with C3H10T1/2. The Kd on ShhN protein was below 100 nM.
Consider `CC(=O)N[C@H]1C/C=C/C[C@@H](CC(=O)NCc2ccc(Cl)cc2)C(=O)NC[C@@H](c2ccccc2)OC1=O` [Example DJ, 2-((2R,6S,11S,E)-11-acetamido-5,12-dioxo-2-phenyl-1-oxa-4-azacyclododec-8-en-6-yl)-N-(4-chlorobenzyl)acetamide], for which the IC50 is above 100000 nM in the data set on Gli1 and 100 to 1000 nM with C3H10T1/2. In addition, at ShhN protein, the Kd was below 100 nM.
On to `O=C1CC/C=C/C[C@@H](CC(=O)N2CCOCC2)C(=O)NC[C@@H](c2ccccc2)O1` [Example DK, (2R,6S,E)-6-(2-morpholino-2-oxoethyl)-2-phenyl-1-oxa-4-azacyclododec-8-ene-5,12-dione], for which the IC50 was 100 to 1000 nM in the data set on Gli1 and 1000 to 100000 nM in the data set on C3H10T1/2. Further, the Kd on ShhN protein is below 100 nM.
For `CC(=O)N[C@H]1C/C=C/C[C@@H](CC(=O)NCc2ccc(Cl)cc2)C(=O)N(C)[C@@H](C)[C@@H](c2ccccc2)OC1=O` [Example DM, 2-((2R,3S,6S,11S,E)-11-acetamido-3,4-dimethyl-5,12-dioxo-2-phenyl-1-oxa-4-azacyclododec-8-en-6-yl)-N-(4-chlorobenzyl)acetamide], the IC50 in the data set on Gli1 lay within 100 to 1000 nM; in the data set with C3H10T1/2, 1000 to 100000 nM. Besides, the Kd on ShhN protein is below 100 nM.
As for `CN1CCC(CNC(=O)C[C@@H]2C/C=C/CCC(=O)O[C@H](c3ccccc3)CNC2=O)CC1` [Example DN, 2-((2R,6S,E)-5,12-dioxo-2-phenyl-1-oxa-4-azacyclododec-8-en-6-yl)-N-((1-methylpiperidin-4-yl)methyl)acetamide], the IC50 with Gli1 was 100 to 1000 nM; in the data set on C3H10T1/2, 1000 to 100000 nM. Also, the Kd at ShhN protein is below 100 nM.
Taken in the same sequence, the figures for `O=C(C[C@@H]1C[C@H](O)[C@@H](O)CCC(=O)N[C@H](c2ccccc2)COC1=O)NCc1ccc(Cl)cc1` [Example E, N-(4-chlorobenzyl)-2-((3R,8S,9S,11S)-8,9-dihydroxy-5,12-dioxo-3-phenyl-1-oxa-4-azacyclododecan-11-yl)acetamide] were below 100 nM, 1000 to 100000 nM and below 100 nM.
Take `CC1(C)O[C@H]2CCC(=O)O[C@H](c3ccccc3)CNC(=O)[C@H](CC(=O)NCc3ccc(Cl)cc3)C[C@@H]2O1` [Example I, N-(4-chlorobenzyl)-2-((3aS,8R,12S,13aS)-2,2-dimethyl-6,11-dioxo-8-phenyldecahydro-3aH-[1,3]dioxolo[4,5-h][1,4]oxaazacyclododecin-12-yl)acetamide]: the IC50 was below 100 nM with Gli1 and 1000 to 100000 nM in the data set with C3H10T1/2. For the same compound, the Kd on ShhN protein is below 100 nM.
Consider `O=C(O)C[C@@H]1C/C=C/CCC(=O)O[C@H](c2ccccc2)CNC1=O` [GC, 2-((2R,6S,E)-5,12-dioxo-2-phenyl-1-oxa-4-azacyclododec-8-en-6-yl)acetic acid], for which, in the data set on Gli1, the IC50 was above 100000 nM. Besides, the Kd at ShhN protein was above 100000 nM.
Take `CN1C(=O)CC/C=C/C[C@@H](CC(=O)NCc2ccc(Cl)cc2)C(=O)OC[C@H]1c1ccccc1` [GH, N-(4-chlorobenzyl)-2-((3R,11S,E)-4-methyl-5,12-dioxo-3-phenyl-1-oxa-4-azacyclododec-8-en-11-yl)acetamide]: the IC50 in the data set on Gli1 lay within 1000 to 100000 nM. Besides, the Kd on ShhN protein lay in the range of 1000 to 100000 nM.
